Results reported in paper PMC11079029, “Intramolecular autoinhibition regulates the selectivity of PRPF40A tandem WW domains for proline-rich motifs” (Nature Communications, 2024).
Where two headings read alike, the source gives them in different places. No end group written: not given here.

Target: T1, PRPF40A WW12 (tandem WW domains, residues 141–236) (Homo sapiens, UniProt O75400)
T1 construct: WW12 141–236, WW12long 141–248, and N-ext-WW12 56–236; 6xHis-TEV site (N, cleaved yes); made in house; host or cells: Escherichia coli BL21(DE3)
T1 sequence (O75400 141-236): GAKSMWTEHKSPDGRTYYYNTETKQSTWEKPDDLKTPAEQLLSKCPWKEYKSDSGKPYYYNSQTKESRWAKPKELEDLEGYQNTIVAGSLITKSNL
Test: ITC of PRPF40A WW12 with GB1-tagged proline-rich peptides and constructs
Assay type: binding
Details: for N (sites): ITC as E1, peptide in the cell, N >1 = more than one WW tandem per peptide; for DH: ITC binding enthalpy; for Kd: ITC
Source text: PRPF40A isoform 1 sequences (N-ter 1–310, WW12short 141–223, WW12 141–236, WW12long 141–248, and N-ext-WW12 56–236) were amplified from a purchased DNA fragment (IDT) and cloned using NcoI and KpnI restriction sites into a pETM11 vector encoding 6xHis and TEV cleavage site as a N-terminal tag. SF1 (Pro A 410–468, Pro B 468–539, Pro C 539–594, Pro D 594–639, Pro BC 468–594, Pro CD 539–639, Pro BCD 468–639 and Pro ABCD 410–639) and SF3A1 (Middle Pro 364–413 and C-ter Pro 552–683) constructs were prepared in a similar manner using a pET24 vector with a 6xHis, GB1 and TEV cleavage site as N-terminal fusion cassette. 16-mer SF1 constructs (Table 1) and polyproline peptides (P6, P8, P10, P13, P16, P19, P22, P25, and P29) were cloned in the same pET24 vector with GB1 tag by direct ligation of purchased oligonucleotides (Eurofins). All peptide sequences contained N and C-terminal common residues to avoid boundary effects on binding: TEVsite-GAMSGS-peptide-SGSN. Mutants of PRPF40A WW12 and N-ext-WW12 constructs were prepared by site-directed mutagenesis. The truncated version of PRPF40A WW12 (141-217) was a gift from Dr. María Macías (IRB, Spain). All used oligonucleotides were purchased from Eurofins Genomics and are shown in Supplementary Table 6.
Resuspended cell pellets in 20 mM Tris pH 8.0, 500 mM NaCl, 10 mM imidazole, 0.5 mM TCEP, and protease inhibitors mix (SERVA) were lysed by cell disruption in a French press. Clear lysates, after centrifugation (at 18,000 g) and filtering, were loaded into Ni-NTA resin. The resin was then washed with 20 mM imidazole containing buffer, and the desired protein was eluted with 500 mM imidazole. PRPF40A constructs were then subjected to TEV protease treatment (homemade at a final concentration of ≈50 μg/ml), dialyzed overnight at 4 °C against an imidazole-free buffer, and then loaded again to Ni-NTA resin; desired digested proteins were obtained in the flow-through and wash fractions while uncleaved protein, TEV protease, and impurities remained bound to the resin. Cleaved PRPF40A proteins and GB1-tagged SF1, SF3A1, and polyproline constructs were further purified by size-exclusion chromatography on a HiLoad 16/60 Superdex 75 column (GE Healthcare) equilibrated with 20 mM sodium phosphate, pH 6.5, 100 mM NaCl and 1 mM DTT buffer. For the purification of PRPF40A WW12 in complex with SF1 peptide, cell pellets of recombinant expression for both proteins were mixed and processed together following the Ni-NTA—TEV digestion—reverse Ni-NTA—SEC-75 protocol; where the complex remained bound in a 1:1 stoichiometry throughout the whole purification (corroborated by NMR). Molecular weight of each sample was confirmed by mass spectrometry, purity was checked by PAGE-SDS, and protein concentrations were determined from the aromatic contribution to the UV absorbance spectra at 280 nm.
Experiments were conducted on a MicroCAl PEAQ-ITC (Malvern Instruments, UK) at 25 °C in 20 mM sodium phosphate pH 6.5 and 100 mM NaCl. PRPF40A was titrated into N-terminal GB1 tagged SF1 or polyproline constructs and vice versa with similar results. Protein concentrations in the cell were around 20–40 μM, while in the syringe ranged between 200 and 500 μM. Experiments were performed at least in duplicate with injections of 1.5 μL (0.4 μL for first point) separated by 150 s delays to recover thermal power baseline and continuous stirring in the cell (750 rpm) for correct mixing. The reference cell was filled with water in all experiments. Data were processed by removing the blank experiment (using digested GB1 fusion protein) and adjusted to one-site binding model with Malvern PEAQ-ITC Analysis software (Malvern Instruments, UK).

[1] = 25 °C, 20 mM sodium phosphate pH 6.5, 100 mM NaCl, GB1-tagged polyproline or SF1 16-mer peptide in the cell, WW tandem in the syringe, one-site model, apparent Kd, average of at least duplicates, read-out: Kd
[2] = SF1 peptides, individual value 1 (replicate 1), read-out: Kd Values with WW12, individual value
[3] = SF1 peptides, individual value 2 (replicate 2), read-out: Kd Values with WW12, individual value
[4] = SF1 peptides, individual value 3 (replicate 3), read-out: Kd Values with WW12, individual value

Row | Substance | N (sites) (WW tandem in the syringe) | DH (as E1) | further results
1 | MPPFGMPPAPPPPPPQ [SF1_623–638, GB1-tagged 16-mer from the SF1 C-terminal region] | 0.95 ± 0.10 sites | -10.7 ± 3.54 kcal/mol | Kd [1]: 23.3 ± 13.3 µM; Kd [2]: 21.8 µM; Kd [3]: 24.8 µM
2 | MPPPPPPPSGQPPPPP [SF1_478–493, GB1-tagged 16-mer from the SF1 C-terminal region] | 0.80 ± 0.11 sites | -14.3 ± 0.956 kcal/mol | Kd [1]: 9.59 ± 0.9 µM; Kd [2]: 8.26 µM; Kd [3]: 10.3 µM; Kd [4]: 10.2 µM
3 | MQPPPPPMNQGPHPPG [SF1_425–440, GB1-tagged 16-mer from the SF1 C-terminal region] | 0.87 ± 0.07 sites | -13.3 ± 1.41 kcal/mol | Kd [1]: 20.2 ± 3.1 µM; Kd [2]: 15.9 µM; Kd [3]: 21.8 µM; Kd [4]: 22.9 µM
4 | MYAPPPPPPPPMDPSN [SF1_596–611, GB1-tagged 16-mer from the SF1 C-terminal region] | 1.10 ± 0.30 sites | -10.9 ± 8.8 kcal/mol | Kd [1]: 65.9 ± 50.7 µM
5 | P10: recombinant GB1-tagged polyproline peptide, 10 prolines (GB1-GAMSGSPPPPPPPPPPSGSN; not fully specified) | 0.89 ± 0.11 sites | -9.63 ± 1.24 kcal/mol | 
6 | P13: recombinant GB1-tagged polyproline peptide, 13 prolines (GB1-GAMSGSPPPPPPPPPPPPPSGSN; not fully specified) | 0.78 ± 0.07 sites | -15.7 ± 1.54 kcal/mol | 
7 | P16: recombinant GB1-tagged polyproline peptide, 16 consecutive proline residues (GB1-GAMSGSPPPPPPPPPPPPPPPPSGSN; also: His6 tag state not given here) | 0.88 ± 0.08 sites | -15.2 ± 0.621 kcal/mol | 
8 | P19: recombinant GB1-tagged polyproline peptide, 19 prolines (GB1-GAMSGSPPPPPPPPPPPPPPPPPPPSGSN; also: His6 tag state not given here) | 1.10 ± 0.04 sites | -18.2 ± 0.837 kcal/mol | 
9 | P22: recombinant GB1-tagged polyproline peptide, 22 prolines (GB1-GAMSGSPPPPPPPPPPPPPPPPPPPPPPSGSN; also: His6 tag state not given here) | 1.39 ± 0.03 sites | -18.6 ± 0.574 kcal/mol | 
10 | P25: recombinant GB1-tagged polyproline peptide, 25 prolines (GB1-GAMSGSPPPPPPPPPPPPPPPPPPPPPPPPPSGSN; also: His6 tag state not given here) | 2.30 ± 0.09 sites | -16.6 ± 0.645 kcal/mol | 
11 | P29: recombinant GB1-tagged polyproline peptide, 29 prolines (GB1-GAMSGSPPPPPPPPPPPPPPPPPPPPPPPPPPPPPSGSN; also: His6 tag state not given here) | 2.47 ± 0.09 sites | -15.8 ± 0.502 kcal/mol | 
12 | SF1 Pro A: GB1-tagged SF1 construct, residues 410–468 (GB1-GHPMQHNPNGPPPPWMQPPPPPMNQGPHPPGHHGPPPMDQYLGSTPVGSGVYRLHQGKG; also: His6 tag state not given here) |  |  | DH (as E4): -15.1 ± 3.54 kcal/mol
13 | SF1 Pro C: GB1-tagged SF1 construct, residues 539–594, contains the WWbs 16-mer (GB1-GSIPPWQQQQAAAAASPGAPQMQGNPTMVPLPPGVQPPLPPGAPPPPPPPPPGSAG; also: His6 tag state not given here) |  |  | DH (as E4): -20.6 ± 0.22 kcal/mol
14 | SF1 Pro D: GB1-tagged SF1 construct, residues 594–639 (GB1-GMMYAPPPPPPPPMDPSNFVTMMGMGVAGMPPFGMPPAPPPPPPQN; also: His6 tag state not given here) |  |  | DH (as E4): -16 ± 4.52 kcal/mol
15 | SF3A1 Middle Pro: GB1-tagged SF3A1 construct, residues 364–413, contains a PPLP motif (GB1-EGQKVPPPPETPMPPPLPPTPDQVIVRKDYDPKASKPLPPAPAPDEYLVS; also: His6 tag state not given here) |  |  | DH (as E4): -27.25 ± 6.48 kcal/mol
16 | TMVPLPPGVQPPLPPG [SF1_565–580, GB1-tagged 16-mer from the SF1 C-terminal region] | 1.06 ± 0.11 sites | -13.5 ± 1.96 kcal/mol | Kd [2]: 24 µM; Kd [3]: 37.8 µM; Kd [4]: 23.4 µM; Kd (SF1 peptides, individual value 4 (replicate 4), read-out: Kd Values with WW12, individual value): 36.5 µM
